Values quoted from earlier work in US6528086B2, “Methods and apparatus for drug delivery involving phase changing formulations” (Zars, Inc., priority 1999, dated 2003).

System: tissues
Conditions: in vivo

For CCCCNc1ccc(C(=O)OCCN(C)C)cc1 [Tetracaine], the “duration of anesthetic effect compared with lidocaine” value is given as “longer lasting anesthetic effect on tissues than lidocaine”.
